Assay results published in US7435837B2, “Dihydrobenzofuranyl alkanamine derivatives and methods for using same” (Wyeth, priority 2003, dated 2008).
pEC50, pKi: −log10 of the molar value.

Tests used:
[1] = biological target: T1, human 5-hydroxytryptamine-2C (h5-HT2C) receptor (Homo sapiens, UniProt P28335); experiment: [125I]DOI binding to membranes of CHO cells expressing the human 5-HT2C receptor; details: [125I]DOI radioligand, CHO cell membranes, room temperature 60 min; read-out: 5-HT2C Affinity Ki
T1 construct: expressed in transfected cells; host or cells: CHO (Chinese Hamster Ovary) cells; membranes
T1 sequence (P28335 33-458): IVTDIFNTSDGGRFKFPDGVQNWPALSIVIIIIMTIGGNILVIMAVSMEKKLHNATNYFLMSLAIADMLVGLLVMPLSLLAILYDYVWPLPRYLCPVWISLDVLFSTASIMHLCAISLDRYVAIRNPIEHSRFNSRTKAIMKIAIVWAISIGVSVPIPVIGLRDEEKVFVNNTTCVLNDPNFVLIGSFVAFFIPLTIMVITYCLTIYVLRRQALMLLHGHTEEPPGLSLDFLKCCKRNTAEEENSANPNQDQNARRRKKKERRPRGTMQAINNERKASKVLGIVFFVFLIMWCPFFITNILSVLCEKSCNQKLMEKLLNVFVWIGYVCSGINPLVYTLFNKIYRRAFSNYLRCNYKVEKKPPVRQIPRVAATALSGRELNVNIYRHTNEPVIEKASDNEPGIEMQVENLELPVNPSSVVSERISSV

[2] = biological target: T2, human 5-HT2C receptor (Homo sapiens, UniProt P28335); experiment: 5-HT2C receptor-stimulated calcium mobilization (FLIPR) in CHO cells; type: cell-based; details: for pEC50: calcium mobilization, CHO cells stably expressing human 5-HT2C, read-out: 5-HT2C Function EC50; for 5-HT2C Function Emax (%) / Emax: percentage of the response observed with a maximally effective concentration of 5-HT; for Emax: CHO, read-out: 5-HT2C Function Emax (%);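 as to all read-outs here: Fluo-3-AM fluorescence read on FLIPR every 1 s, agonist added after 10 baseline reads, response taken as peak minus lowest raw fluorescence count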
T2 sequence (P28335 33-458): T1 sequence (P28335 33-458)

| Structure (SMILES) | pKi [1] | pEC50 [2] | 5-HT2C Function Emax (%) [2] | Emax [2] |
| --- | --- | --- | --- | --- |
| Cc1cccc(-c2cccc3c2OC(CN)C3)c1 (single isomer, unassigned; (-)) [Example 43, (−)-1-[7-(3-methylphenyl)-2,3-dihydro-1-benzofuran-2-yl]methanamine] | 7.00 | 6.13 | 80% | – |
| Cc1ccccc1-c1cccc2c1OC(CN)C2 (single isomer, unassigned; (-)) [Example 49, (−)-1-[7-(2-methylphenyl)-2,3-dihydro-1-benzofuran-2-yl]methanamine] | 8.00 | 6.88 | 80% | – |
| Cc1ccc(-c2cccc3c2OC(CN)C3)cc1 (single isomer, unassigned; (-)) [Example 72, (−)-1-[7-(4-methylphenyl)-2,3-dihydro-1-benzofuran-2-yl]methanamine] | 7.48 | 6.29 | 85% | – |
| COc1ccc(-c2cccc3c2OC(CN)C3)cc1 (single isomer, unassigned; (-)) [Example 81, (−)-1-[7-(4-methoxyphenyl)-2,3-dihydro-1-benzofuran-2-yl]methanamine] | 7.62 | 6.53 | 50% | – |
| NCC1Cc2cc(Cl)cc(-c3ccccc3)c2O1 (single isomer, unassigned; (-)) [Example 86, (−)-1-(5-chloro-7-phenyl-2,3-dihydro-1-benzofuran-2-yl)methanamine] | 7.12 | 6.02 | 90% | – |
| NCC1Cc2cc(Cl)cc(-c3ccsc3)c2O1 (single isomer, unassigned; (-)) [Example 91, (−)-(5-chloro-7-thien-3-yl-2,3-dihydro-1-benzofuran-2-yl)methylamine] | 8.30 | 7.35 | – | 100% |
| Cc1ccccc1-c1cc(Cl)cc2c1OC(CN)C2 (single isomer, unassigned; (-)) [Example 97, (−)-1-[5-chloro-7-(2-methylphenyl)-2,3-dihydro-1-benzofuran-2-yl]methanamine] | 8.40 | 6.24 | 60% | – |
| Cc1ccccc1-c1cc(F)cc2c1OC(CN)C2 (single isomer, unassigned; (-)) [Example 106, (−)-1-[5-fluoro-7-(2-methylphenyl)-2,3-dihydro-1-benzofuran-2-yl]methanamine] | 7.80 | 7.04 | 50% | – |
| NCC1Cc2cccc(-c3ccccc3Cl)c2O1 (single isomer, unassigned; (-)) [Example 129, (−)-1-[7-(2-chlorophenyl)-2,3-dihydro-1-benzofuran-2-yl]methanamine] | 9.52 | 9.70 | – | 100% |
| COc1ccc(-c2cccc3c2OC(CN)C3)c(OC)c1 (single isomer, unassigned; (-)) [Example 144, (−)-1-[7-(2,4-dimethoxyphenyl)-2,3-dihydro-1-benzofuran-2-yl]methanamine] | 8.21 | 8.40 | – | 90% |
| NCC1Cc2cc(F)cc(-c3ccccc3C(F)(F)F)c2O1 (single isomer, unassigned; (-)) [Example 151, (−)-1-{5-fluoro-7-[2-(trifluoromethyl)phenyl]-2,3-dihydro-1-benzofuran-2-yl}methanamine] | 8.96 | 7.57 | 100% | – |
| NCC1Cc2cccc(-c3cc(Cl)ccc3Cl)c2O1 (single isomer, unassigned; (-)) [Example 165, (−)-{[7-(2,5-dichlorophenyl)-2,3-dihydro-1-benzofuran-2-yl]methyl}amine] | 7.74 | 7.10 | 70% | – |

Other lines, results leading:

| pKi [1] | pEC50 [2] | 5-HT2C Function Emax (%) [2] | Emax [2] | Structure (SMILES) |
| --- | --- | --- | --- | --- |
| 9.30 | 8.05 | – | 85% | NCC1Cc2cccc(-c3ccccc3C(F)(F)F)c2O1 (single isomer, unassigned; (-)) [Example 54, (−)-1-{7-[2-(trifluoromethyl)phenyl]-2,3-dihydro-1-benzofuran-2-yl}methanamine] |
| 9.00 | 7.92 | – | 80% | Cc1cccc(C)c1-c1cccc2c1OC(CN)C2 (single isomer, unassigned; (-)) [Example 57, (−)-1-[7-(2,6-dimethylphenyl)-2,3-dihydro-1-benzofuran-2-yl]methanamine] |
| 7.08 | 5.24 | 70% | – | NCC1Cc2cccc(-c3cccc(Cl)c3)c2O1 (single isomer, unassigned; (-)) [Example 67, (−)-1-[7-(3-chlorophenyl)-2,3-dihydro-1-benzofuran-2-yl]methanamine] |
| 7.39 | 6.79 | 90% | – | NCC1Cc2cccc(-c3ccc(Cl)cc3)c2O1 (single isomer, unassigned; (-)) [Example 78, (−)-1-[7-(4-chlorophenyl)-2,3-dihydro-1-benzofuran-2-yl]methanamine] |
| 8.10 | 7.49 | 65% | – | NCC1Cc2cc(F)cc(-c3ccccc3Cl)c2O1 (single isomer, unassigned; (-)) [Example 102, (−)-1-[7-(2-chlorophenyl)-5-fluoro-2,3-dihydro-1-benzofuran-2-yl]methanamine] |
| 7.70 | 5.83 | 50% | – | NCC1Cc2cccc(-c3cccc(F)c3)c2O1 (single isomer, unassigned; (-)) [Example 132, (−)-1-[7-(3-fluorophenyl)-2,3-dihydro-1-benzofuran-2-yl]methanamine] |
| 8.13 | 5.42 | 60% | – | NCC1Cc2cccc(-c3ccc(C(F)(F)F)cc3)c2O1 (single isomer, unassigned; (-)) [Example 138, (−)-1-{7-[4-(trifluoromethyl)phenyl]-2,3-dihydro-1-benzofuran-2-yl}methanamine] |
| 10.15 | 10.52 | – | 90% | NCC1Cc2cccc(-c3c(Cl)cccc3Cl)c2O1 (single isomer, unassigned; (-)) [Example 141, (−)-1-[7-(2,6-dichlorophenyl)-2,3-dihydro-1-benzofuran-2-yl]methanamine] |
| 7.92 | 6.54 | 70% | – | NCC1Cc2cccc(-c3ccc(F)cc3F)c2O1 (single isomer, unassigned; (-)) [Example 148, (−)-1-[7-(2,4-difluorophenyl)-2,3-dihydro-1-benzofuran-2-yl]methanamine] |
| 9.82 | 9.01 | – | 100% | NCC1Cc2cccc(-c3ccc(Cl)cc3Cl)c2O1 (single isomer, unassigned; (-)) [Example 149, (−)-1-[7-(2,4-dichlorophenyl)-2,3-dihydro-1-benzofuran-2-yl]methanamine] |
| 8.33 | 8.22 | – | 90% | COc1cccc(-c2cccc3c2OC(CN)C3)c1OC (single isomer, unassigned; (-)) [Example 156] |
| 7.92 | 6.20 | 80% | – | Cc1cc(Cl)ccc1-c1cccc2c1OC(CN)C2 (single isomer, unassigned; (-)) [Example 159, (−)-{[7-(4-chloro-2-methylphenyl)-2,3-dihydro-1-benzofuran-2-yl]methyl}amine] |
